Reference: US20140065103A1 (VERTEX PHARMACEUTICALS INCORPORATED, priority 2010, published 2014)

Tests used:
[1] = [3H]Thymidine incorporation assay (cytotoxicity, CC50); conditions: human
[2] = test system: HCV sub-genomic replicon of genotype 1a in replicon cell line W11.8; test: microbe, parasite or virus in culture; type: cell-based, Hepatitis C virus; conditions: Hepatitis C virus, W11.8, 96 h, read-out: HCV-Replicon-ELISA-1a IC50

CC(C)(C)C#Cc1cc(N(C(=O)[C@H]2CC[C@H](C)CC2)C2CC=C(F)CC2)c(C(=O)O)s1 (relative stereo) [Compound 15, 5-(3,3-Dimethyl-but-1-ynyl)-3-[(4-fluoro-cyclohex-3-enyl)-(trans-4-methyl-cyclohexanecarbonyl)-amino]-thiophene-2-carboxylic acid]
CC50 at 72 h [1]: 10 to 100 µM | IC50 [2]: < 0.1 µM

CC(CN1CCOCC1)N(c1cc(C#CC(C)(C)C)sc1C(=O)O)C(=O)[C@H]1CC[C@H](C)CC1 (relative stereo) [Compound 72, 5-(3,3-Dimethylbut-1-yn-1-yl)-3-(trans-4-methyl-N-(1-morpholinopropan-2-yl)cyclohexanecarboxamido)thiophene-2-carboxylic acid]
CC50 at 72 h [1]: 10 to 100 µM | IC50 [2]: < 0.1 µM

CC(C)(C)C#Cc1cc(N(Cc2cccnc2)C(=O)[C@H]2CC[C@H](C)CC2)c(C(=O)O)s1 [Compound 1]
CC50 at 72 h [1]: 10 to 100 µM | IC50 [2]: < 0.1 µM

CC(C)(C)C#Cc1cc(N(CC(=O)O)C(=O)[C@H]2CC[C@H](C)CC2)c(C(=O)O)s1 [Compound 2, 3-[Carboxymethyl-(trans-4-methyl-cyclohexanecarbonyl)-amino]-5-(3,3-dimethyl-but-1-ynyl)-thiophene-2-carboxylic acid]
CC50 at 72 h [1]: > 100 µM | IC50 [2]: 0.1 to 1 µM

CN(C)C(=O)[C@H]1C[C@@H](N(c2cc(C#CC(C)(C)C)sc2C(=O)O)C(=O)[C@H]2CC[C@H](C)CC2)C1 [Compound 11, 5-(3,3-dimethylbut-1-yn-1-yl)-3-(trans-4-methyl-N-(cis-3-(dimethylcarbamoyl)cyclobutyl)cyclohexanecarboxamido)thiophene-2-carboxylic acid]
CC50 at 72 h [1]: 10 to 100 µM | IC50 [2]: < 0.1 µM

C=CCO[C@H]1CC[C@H](N(c2cc(C#CC(C)(C)C)sc2C(=O)O)C(=O)[C@H]2CC[C@H](C)CC2)CC1 [Compound 12, 3-[(trans-4-Allyloxy-cyclohexyl)-(trans-4-methyl-cyclohexanecarbonyl)-amino]-5-(3,3-dimethyl-but-1-ynyl)-thiophene-2-carboxylic acid]
CC50 at 72 h [1]: 10 to 100 µM | IC50 [2]: < 0.1 µM

CC(C)(C)C#Cc1cc(N(C(=O)[C@H]2CC[C@H](C)CC2)C2CCC(F)(F)CC2)c(C(=O)O)s1 [Compound 14, 3-[(4,4-Difluoro-cyclohexyl)-(trans-4-methyl-cyclohexanecarbonyl)-amino]-5-(3,3-dimethyl-but-1-ynyl)-thiophene-2-carboxylic acid]
CC50 at 72 h [1]: 10 to 100 µM | IC50 [2]: < 0.1 µM

CC(C)(C)C#Cc1cc(N(C(=O)[C@H]2CC[C@H](C)CC2)C2CC2)c(C(=O)O)s1 [Compound 16, 3-[Cyclopropyl-(trans-4-methyl-cyclohexanecarbonyl)-amino]-5-(3,3-dimethyl-but-1-ynyl)-thiophene-2-carboxylic acid]
CC50 at 72 h [1]: 10 to 100 µM | IC50 [2]: 0.1 to 1 µM

CC(C)N(c1cc(C#CC2CCCCC2)sc1C(=O)O)C(=O)[C@H]1CC[C@H](C)CC1 [Compound 18, 5-Cyclohexylethynyl-3-[isopropyl-(trans-4-methyl-cyclohexanecarbonyl)-amino]-thiophene-2-carboxylic acid]
CC50 at 72 h [1]: 10 to 100 µM | IC50 [2]: 1 to 10 µM

CC(C)N(c1cc(C#CC(C)(C)O)sc1C(=O)O)C(=O)[C@H]1CC[C@H](C)CC1 [Compound 19, 5-(3-Hydroxy-3-methyl-but-1-ynyl)-3-[isopropyl-(trans-4-methyl-cyclohexanecarbonyl)-amino]-thiophene-2-carboxylic acid]
CC50 at 72 h [1]: > 100 µM | IC50 [2]: 0.1 to 1 µM

CC(C)N(c1cc(C#CC2CC2)sc1C(=O)O)C(=O)[C@H]1CC[C@H](C)CC1 [Compound 20, 5-Cyclopropylethynyl-3-[isopropyl-(trans-4-methyl-cyclohexanecarbonyl)-amino]-thiophene-2-carboxylic acid]
CC50 at 72 h [1]: 10 to 100 µM | IC50 [2]: 0.1 to 1 µM

CC(C)N(c1cc(C#Cc2ccccc2)sc1C(=O)O)C(=O)[C@H]1CC[C@H](C)CC1 [Compound 21, 3-[Isopropyl-(trans-4-methyl-cyclohexanecarbonyl)-amino]-5-phenylethynyl-thiophene-2-carboxylic acid]
CC50 at 72 h [1]: 10 to 100 µM | IC50 [2]: 1 to 10 µM

COC(C)(C)C#Cc1cc(N(C(=O)[C@H]2CC[C@H](C)CC2)C(C)C)c(C(=O)O)s1 [Compound 22, 3-[Isopropyl-(trans-4-methyl-cyclohexanecarbonyl)-amino]-5-(3-methoxy-3-methyl-but-1-ynyl)-thiophene-2-carboxylic acid]
CC50 at 72 h [1]: 10 to 100 µM | IC50 [2]: 0.1 to 1 µM

CC(C)N(c1cc(C#CC(F)(F)F)sc1C(=O)O)C(=O)[C@H]1CC[C@H](C)CC1 [Compound 23, 3-[Isopropyl-(trans-4-methyl-cyclohexanecarbonyl)-amino]-5-trifluoroprop-1-ynyl-thiophene-2-carboxylic acid]
CC50 at 72 h [1]: 10 to 100 µM | IC50 [2]: 0.1 to 1 µM

Cc1nnc(CN(c2cc(C#CC(C)(C)C)sc2C(=O)O)C(=O)[C@H]2CC[C@H](C)CC2)o1 [Compound 24, 5-(3,3-Dimethyl-but-1-ynyl)-3-[(trans-4-methyl-cyclohexanecarbonyl)-(5-methyl-[1,3,4]oxadiazol-2-ylmethyl)-amino]-thiophene-2-carboxylic acid]
CC50 at 72 h [1]: < 10 µM

CC(C)(C)C#Cc1cc(N(CCN2CCOCC2)C(=O)[C@H]2CC[C@H](C)CC2)c(C(=O)O)s1 [Compound 48, 5-(3,3-Dimethylbut-1-yn-1-yl)-3-(trans-4-methyl-N-(2-morpholinoethyl)cyclohexanecarboxamido)thiophene-2-carboxylic acid]
CC50 at 72 h [1]: 10 to 100 µM | IC50 [2]: < 0.1 µM

CC(C)(C)C#Cc1cc(N(C(=O)[C@H]2CC[C@H](C)CC2)[C@H]2CCNC2)c(C(=O)O)s1 [Compound 57, 5-(3,3-Dimethylbut-1-yn-1-yl)-3-((trans)-4-methyl-N-((S)-pyrrolidin-3-yl)cyclohexanecarboxamido)thiophene-2-carboxylic acid]
CC50 at 72 h [1]: > 100 µM | IC50 [2]: < 0.1 µM

CC(C)(C)C#Cc1cc(N(C(=O)[C@H]2CC[C@H](C)CC2)[C@@H]2CCNC2)c(C(=O)O)s1 [Compound 58, 5-(3,3-Dimethylbut-1-yn-1-yl)-3-((trans)-4-methyl-N—((R)-pyrrolidin-3-yl)cyclohexanecarboxamido)thiophene-2-carboxylic acid]
CC50 at 72 h [1]: > 100 µM | IC50 [2]: < 0.1 µM

Cn1ccnc1CN(c1cc(C#CC(C)(C)C)sc1C(=O)O)C(=O)[C@H]1CC[C@H](C)CC1 [Compound 64, 5-(3,3-Dimethylbut-1-ynyl)-3-((trans)-4-methyl-N-((1-methyl-1H-imidazol-2-yl)methyl)cyclohexanecarboxamido)thiophene-2-carboxylic acid]
CC50 at 72 h [1]: 10 to 100 µM | IC50 [2]: < 0.1 µM

Cn1cncc1CN(c1cc(C#CC(C)(C)C)sc1C(=O)O)C(=O)[C@H]1CC[C@H](C)CC1 [Compound 66, 5-(3,3-Dimethylbut-1-ynyl)-3-((trans)-4-methyl-N-((1-methyl-1H-imidazol-5-yl)methyl)cyclohexanecarboxamido)thiophene-2-carboxylic acid]
CC50 at 72 h [1]: > 100 µM | IC50 [2]: < 0.1 µM

Cn1cc(CN(c2cc(C#CC(C)(C)C)sc2C(=O)O)C(=O)[C@H]2CC[C@H](C)CC2)cn1 [Compound 67, 5-(3,3-Dimethylbut-1-ynyl)-3-((trans)-4-methyl-N-((1-methyl-1H-pyrazol-4-yl)methyl)cyclohexanecarboxamido)thiophene-2-carboxylic acid]
CC50 at 72 h [1]: > 100 µM | IC50 [2]: 0.1 to 1 µM

Cn1ccc(CN(c2cc(C#CC(C)(C)C)sc2C(=O)O)C(=O)[C@H]2CC[C@H](C)CC2)n1 [Compound 71, 5-(3,3-Dimethylbut-1-ynyl)-3-((trans)-4-methyl-N-((1-methyl-1H-pyrazol-3-yl)methyl)cyclohexanecarboxamido)thiophene-2-carboxylic acid]
CC50 at 72 h [1]: 10 to 100 µM | IC50 [2]: < 0.1 µM

CC(C)(C)C#Cc1cc(N(C(=O)c2ccc(Cl)cc2)[C@H]2CC[C@H](O)CC2)c(C(=O)O)s1 [Compound 81, 3-[(4-Chloro-benzoyl)-(trans-4-hydroxy-cyclohexyl)-amino]-5-(3,3-dimethyl-but-1-ynyl)-thiophene-2-carboxylic acid]
IC50 [2]: 0.1 to 1 µM

Cc1ccc(C(=O)N(c2cc(C#CC(C)(C)C)sc2C(=O)O)[C@H]2CC[C@H](O)CC2)c(Cl)c1 [Compound 84, 3-[(2-Chloro-4-methyl-benzoyl)-(trans-4-hydroxy-cyclohexyl)-amino]-5-(3,3-dimethyl-but-1-ynyl)-thiophene-2-carboxylic acid]
IC50 [2]: < 0.1 µM

CC(C)(C)C#Cc1cc(N(C(=O)c2ccccc2Cl)[C@H]2CC[C@H](O)CC2)c(C(=O)O)s1 [Compound 87, 3-[(2-Chloro-benzoyl)-(trans-4-hydroxy-cyclohexyl)-amino]-5-(3,3-dimethyl-but-1-ynyl)-thiophene-2-carboxylic acid]
IC50 [2]: 1 to 10 µM

Cc1ccccc1C(=O)N(c1cc(C#CC(C)(C)C)sc1C(=O)O)[C@H]1CC[C@H](O)CC1 [Compound 88, 5-(3,3-Dimethyl-but-1-ynyl)-3-[(trans-4-hydroxy-cyclohexyl)-(2-methyl-benzoyl)-amino]-thiophene-2-carboxylic acid]
IC50 [2]: 0.1 to 1 µM

Cc1ccc(C(=O)N(c2cc(C#CC(C)(C)C)sc2C(=O)O)[C@H]2CC[C@H](O)CC2)c(F)c1F [Compound 89, 3-[(2,3-Difluoro-4-methyl-benzoyl)-(trans-4-hydroxy-cyclohexyl)-amino]-5-(3,3-dimethyl-but-1-ynyl)-thiophene-2-carboxylic acid]
IC50 [2]: < 0.1 µM

CC(C)(C)C#Cc1cc(N(C(=O)c2ccc(F)cc2)[C@H]2CC[C@H](O)CC2)c(C(=O)O)s1 [Compound 92, 5-(3,3-Dimethyl-but-1-ynyl)-3-[(4-fluoro-benzoyl)-(trans-4-hydroxy-cyclohexyl)-amino]-thiophene-2-carboxylic acid]
IC50 [2]: 1 to 10 µM

CC(C)(C)C#Cc1cc(N(C(=O)c2ccc(Cl)c(F)c2)[C@H]2CC[C@H](O)CC2)c(C(=O)O)s1 [Compound 94, 3-[(4-Chloro-3-fluoro-benzoyl)-(trans-4-hydroxy-cyclohexyl)-amino]-5-(3,3-dimethyl-but-1-ynyl)-thiophene-2-carboxylic acid]
IC50 [2]: 0.1 to 1 µM
